Assay results published in PubChem BioAssay AID179 (DTP/NCI, 2004).
“And” between values parts separate entries of the source, which are not always exact repeats. Identical values can stand only once. The source made the active and inactive calls.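 Rule for the calls: active = compounds giving half or more protection of infected cells from virus-caused growth loss, again on retest; inactive = the rest.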

Test system: CEM cells HIV-1 protection, formazan growth assay
Test: NCI AIDS Antiviral Assay
Conditions: for IC50: measured here: growth of uninfected CEM cells
Procedure, shortened: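 Protection of CEM cells against HIV-1 measured as cell growth via soluble formazan read-out, with five concentrations tested on both infected and uninfected cells; failure to protect may reflect toxicity.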

SMILES | outcome | EC50 [µM] | IC50
CN(C)c1cccc2c(S(=O)(=O)NCC(=O)O)cccc12 | inactive | – | –
O=C(CCC(=O)C1CCC/C1=N/O)Nc1ccc(Cl)cc1 (stereo not given) | – | > 302 | 1.12 µM
O=P(Nc1ccccc1)(Oc1ccccc1)N(CCCl)CCCl (stereo not given) | – | > 50.1 | 22.4 µM
O=C1C=C(Nc2ccccc2C(=O)CC(=O)C(=O)Nc2cccc([N+](=O)[O-])c2)c2ccccc2C1=O | – | > 20.9 | 15.5 µM
CCC1(C)C(C#N)(C#N)C1(C#N)C#N | – | > 200 | 1.29 µM
COc1cc(Cc2c(OC)c(OC)cc(C)c2C(=O)O)cc(OC)c1 | – | > 145 | > 145 µM
CC(C)(Br)C(=O)N1CCN(C(c2ccccc2)c2ccccc2)CC1 | – | > 25.1 | –
CCC(C)c1c(NS(=O)(=O)c2ccc(C)cc2)o[nH]c1=O (stereo not given) | – | > 200 | > 200 µM
Cc1cc2c(C(C)C)c(O)c(O)c(C=Nc3ccc(-c4ccccc4)cc3)c2c(O)c1-c1c(C)cc2c(C(C)C)c(O)c(O)c(C=Nc3ccc(-c4ccccc4)cc3)c2c1O | – | 1.62 | > 200 µM
CC(C)(C)OC(=O)N1CC(C)(C)N2C(=O)C3(CCCO3)C12 (stereo not given) | – | 33.9 | 347 µM
C1CCCCC2(CCCCCCCCC3(CCC1)OCCO3)OCCO2 | – | > 200 | > 200 µM
COc1ccc(/C=N/N=C(\[O-])c2ccncc2)cc1F.COc1ccc(/C=N\N=C(/[O-])c2ccncc2)cc1F.[Cu+2] | – | > 100 | 18.6 µM
O=C(O)CCCn1nnc2c(=O)[nH][nH]c(=O)c21 | – | > 200 | > 200 µM
CCCC[C@H]1CCN2C[C@@H](O)[C@@H](O)[C@H]2[C@@H]1O | – | > 200 | > 200 µM
CNc1ccc(C=C2c3ccccc3-c3ccccc32)cc1 | – | > 13.2 | 4.79 µM
CCOC(=O)Cn1c(=O)cc(C)c2ccccc21 | – | > 200 | > 200 µM
Cn1cc(C(=O)C2CCCCC2)ccc1=O | – | > 1150 | 372 µM
O=C(CCc1cc(O)ccc1O)OCCc1ccccc1 | – | > 20 | 10.2 µM
O=C1CN(CC2=CC3(CC2)CCC2=C3CCCC2=O)C(=O)N1 (stereo not given) | – | > 417 | > 417 µM
CC1=CC(C)N(C(=O)c2ccc(Cl)cc2)CCN1C(=O)c1ccc(Cl)cc1 (stereo not given) | – | > 44.7 | 33.9 µM
CCN(CC)CCOc1ccc(/C=C(\C#N)c2ccc(OC)cc2)cc1 | – | > 200 | 2.14 µM
OCCCN1CCCC12CCCCC2 | – | > 200 | > 200 µM
CSC1=NCc2c(sc3c2CCCC3)N1 | – | > 200 | 35.5 µM

SMILES | outcome | EC50 [µM] | IC50
CCCC(CCN)(CCN)[N+](=O)[O-] | – | > 200 | > 200 µM
C(=C\c1c[nH]c2ccccc12)/c1ccc2ccccc2n1 | – | 0.0631 | 16.6 µM
O=c1/c(=N\Nc2ccccc2)c2cccc3ccc4cccc1c4c32 | – | > 100 | > 100 µM
CN1C(=O)C2CC(=O)N(Cc3ccccc3)C(=O)C2C1=O (stereo not given) | – | > 288 | > 288 µM
C[N+](C)(C)CCC#CC[N+]1(C)CCCC1 | inactive | – | –
Nc1c(-c2ccc(Cl)cc2Cl)[n+]([O-])c2ccccc2[n+]1[O-] | inactive | – | –
CN(C)c1c(C2OC(CO)C(O)C2O)c(=O)c1=O (stereo not given) | – | > 200 | > 200 µM
CC(=O)NNC(=S)N/C=C/c1c(C)ccc([N+](=O)[O-])c1[N+](=O)[O-] | – | > 200 | 41.7 µM
O=C(c1ccc(Cl)cc1)c1c(O)c2ccccc2oc1=O | – | > 200 | > 200 µM
Cc1ccc(/C(C#N)=C/c2ccccc2)cc1 | – | > 200 | 28.8 µM
CN(C)CCN=C1Nc2ccccc2C(=O)N2CSCC12 (stereo not given) | – | > 200 | > 200 µM
O=C(N[C@H](CO)[C@H](O)c1ccc([N+](=O)[O-])cc1)C(Cl)Cl | – | > 200 | > 200 µM
COC1C=CC(C(=O)[N+]2=Cc3[nH]c4ccccc4c3CC2)O1 (stereo not given) | – | > 251 | 85.1 µM
COc1cc(/C=C2\SC(=S)N(/C=C/c3nc4ccccc4[nH]c3=O)C2=O)cc(OC)c1OC | – | > 200 | 18.2 µM
CCCCN=C1OCc2[nH][nH]c(=O)c21 | – | > 1290 | > 1290 µM
COC(=O)CCC(=O)CC(=O)C(=O)Nc1c(Cl)cc([N+](=O)[O-])cc1Cl | – | > 18.2 | > 18.2 µM
O=C(CC(c1ccccc1)C(Sc1ccccc1)(Sc1ccccc1)Sc1ccccc1)c1ccccc1 (stereo not given) | – | > 100 | > 100 µM
O=C(CCc1cccc(O)c1)NCCc1cccc(O)c1 | – | > 200 | > 200 µM
CCOC(=O)CCn1ncc(Cl)c(Cl)c1=O | – | > 933 | 4.07 µM
[O-][n+]1ccccc1CCN(O)Cc1ccccc1 | – | > 200 | > 200 µM
COc1ccc(I)c(CCC(CO)C2=CCC3(CC2)OCCO3)c1 (stereo not given) | – | > 16.2 | > 16.2 µM
O=C1C2C(C(=O)N1c1ccccc1)C1(Br)c3ccccc3C2(Br)C2C(=O)N(c3ccccc3)C(=O)C21 (stereo not given) | inactive | – | –
CC(=O)O[C@H]1C[C@@H]2OC3C=C(C)CCC3(C)[C@@]1(C)[C@@]21CO1 (stereo not given in full) | – | > 2 | 0.105 µM

SMILES | outcome | EC50 [µM] | IC50
O=C1C(=O)c2ccccc2C(O)=C1C1CCCCC1 | – | > 263 | 40.7 µM
CCOC(=O)/C(=C\c1cccc(OC)c1)C(C)=O | – | > 525 | 95.5 µM
Oc1cccc2cc(Cl)cnc12 | – | > 20 | 8.32 µM
O=c1[nH][n+]([O-])cc2c(C(O)=C(O)O)c[nH]c12 | inactive | – | –
C=CCNC(=S)N/C=C(\C#N)C(N)=O | – | > 200 | > 200 µM
FC1(F)SC2C3CCC(C3)C2C1(F)F (stereo not given) | inactive | – | –
CC(=O)Nc1ccccc1S(=O)(=O)c1c(-c2c(C)c(Cl)c(C)c(Cl)c2C)noc1C | – | > 200 | 87.1 µM
COc1ccc2c(c1)CC/C2=C\CC1(C)C(=O)CCC1=O | – | > 200 | 107 µM
N#Cc1c(C#N)c(-c2cccc([N+](=O)[O-])c2)n(-c2ccccc2)c1N | – | > 200 | 141 µM
CCCCCCCc1ccc(OC2OC(COC(C)=O)C(OC(C)=O)C(OC(C)=O)C2OC(C)=O)cc1 (stereo not given) | – | > 91.2 | 49 µM and > 85.1 µM
CCC(/C(=N\Nc1c(Cl)cc(Cl)cc1Cl)c1ccccc1)n1ccnc1C (stereo not given) | inactive | – | –
N=c1nc(N)nc2c3ccccc3nnn12 | – | > 24.5 | > 24.5 µM
C/C=C1\CNC2Cc3c([nH]c4ccccc34)C(=O)CC1C2C(=O)OC (stereo not given) | inactive | – | –
O=C1CSC(=S)N1c1ccc(Cl)cc1 | – | > 148 | 56.2 µM
COC(O)C12OC3CO[Si](C(C)C)(C(C)C)O[Si](C(C)C)(C(C)C)OC3C1Oc1nc(=O)ccn12 (stereo not given) | – | > 200 | 30.2 µM
COCC(=O)C1CC[C@@H]2[C@H](CC[C@]3(C)[C@@H](OC(C)=O)CC[C@@H]23)[C@H]1C(=O)OC (stereo not given in full) | – | > 50.1 | > 50.1 µM
CN(C)CCNc1ccc(CO)c2sc3ccc(O)cc3c(=O)c12 | – | > 2 | 0.105 µM
NC(=O)C(Cc1ccccc1)NC(=O)c1ccccc1SC(=O)CCCC[n+]1ccccc1 (stereo not given) | – | > 200 | 4.47 µM
COC(=O)C(=O)C(C(=O)C(=O)Nc1ccc(C)c(C)c1)c1nc2ccc([N+](=O)[O-])cc2[nH]c1=O (stereo not given) | – | > 537 | 234 µM
O=C1CC(c2ccccc2)S(=O)c2ccccc2N1 (stereo not given) | – | > 200 | > 200 µM
C1CCN(CCCSSCCCN2CCCCC2)CC1 | – | > 200 | 91.2 µM
